Test results: ChEMBL document CHEMBL1151603, “Unsymmetrically substituted guanidines as potent histamine H3-receptor antagonists” (Bioorg Med Chem Lett, 1994)

Experiments:
Histamine H3 receptor [1] = target: T1, Histamine H3 receptor (Cavia porcellus, UniProt Q9JI35); assay: Antagonistic activity for Histamine H3 receptor binding in guinea pig
Histamine H3 receptor [2] = target: T1, Histamine H3 receptor; assay: Antagonistic activity for Histamine H3 receptor on electrically evoked guinea-pig ileum contraction; format: functional, tissue-based

T1 sequence (Q9JI35 whole entry): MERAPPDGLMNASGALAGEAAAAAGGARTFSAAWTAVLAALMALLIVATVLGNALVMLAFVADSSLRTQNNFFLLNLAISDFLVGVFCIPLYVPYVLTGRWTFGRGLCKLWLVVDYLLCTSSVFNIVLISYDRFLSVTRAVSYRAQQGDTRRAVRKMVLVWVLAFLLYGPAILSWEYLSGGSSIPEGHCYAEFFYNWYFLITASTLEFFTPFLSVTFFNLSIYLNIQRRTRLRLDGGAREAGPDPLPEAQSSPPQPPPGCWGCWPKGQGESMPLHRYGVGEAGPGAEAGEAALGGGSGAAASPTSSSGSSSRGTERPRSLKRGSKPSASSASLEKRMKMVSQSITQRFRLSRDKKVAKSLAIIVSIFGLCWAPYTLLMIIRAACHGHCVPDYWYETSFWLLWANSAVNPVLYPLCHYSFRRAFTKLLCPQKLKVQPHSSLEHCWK

Structure (SMILES) | Ki (Histamine H3 receptor [1]) | Ki (Histamine H3 receptor [2])
N=C(NCCc1ccccc1)NCCc1cnc[nH]1 | 110 nM | 100 nM
CC(C)(C)OC(=O)N/C(=N/CC1CCCCC1)NCCCc1c[nH]cn1 | 9.5 nM | 10 nM
CCOC(=O)N/C(=N/CC1CCCCC1)NCCCc1c[nH]cn1 | 36 nM | 39.8 nM
CC(C)(C)OC(=O)N/C(=N\CCCc1c[nH]cn1)NCc1ccc(I)cc1 | 12 nM | 12.6 nM
N#CN=C(NCCCc1cnc[nH]1)NCC1CCCCC1 | 22 nM | 20 nM
O=C(N/C(=N/CC1CCCCC1)NCCCc1c[nH]cn1)OCc1ccccc1 | 13 nM | 12.6 nM
N=C(NCCCc1c[nH]cn1)NCc1ccc(I)cc1 | 1.6 nM | 1.58 nM
S=C(NC1CCCCC1)N1CCC(c2cnc[nH]2)CC1 [THIOPERAMIDE] | – | 3.98 nM

Further lines, results first:

Ki (Histamine H3 receptor [1]) | Ki (Histamine H3 receptor [2]) | Structure (SMILES)
5.01 nM | 5.01 nM | N=C(NCCCCc1c[nH]cn1)NC1CCCCC1
7 nM | 6.31 nM | CC(C)(C)OC(=O)N/C(=N/C1CCCCC1)NCCCCc1c[nH]cn1
0.74 nM | 0.794 nM | N=C(NCCCc1c[nH]cn1)NCC1CCCCC1
